# ChEMBL document CHEMBL1201862, “PubChem BioAssay data set” (2004)
# The source made the active and inactive calls.
# Columns and labels:
# [1] = target: T1, Carboxy-terminal domain RNA polymerase II polypeptide A small phosphatase 1 (Homo sapiens, UniProt Q9GZU7); assay: CTDSP1 inhibitors, concentration-response, biochemical, absorbance readout, ultra-high-throughput screen actives (AID 540297); assay type: functional
# T1 sequence (Q9GZU7 whole entry): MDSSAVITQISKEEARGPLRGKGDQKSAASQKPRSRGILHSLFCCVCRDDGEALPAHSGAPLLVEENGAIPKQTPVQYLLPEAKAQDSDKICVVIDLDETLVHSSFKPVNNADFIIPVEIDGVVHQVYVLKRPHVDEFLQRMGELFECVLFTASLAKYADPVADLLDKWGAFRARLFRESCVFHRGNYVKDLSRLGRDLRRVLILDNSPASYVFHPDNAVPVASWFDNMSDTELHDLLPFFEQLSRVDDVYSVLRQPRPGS
# Kallikrein-7 = Kallikrein-7 (Homo sapiens, UniProt P49862); assay: Fluorescence Intensity-based biochemical primary high throughput dose response assay to identify activators of kallikrein-7 (K7) zymogen.
# [2] = target: T2, Long-chain-fatty-acid--AMP ligase FadD28 (Mycobacterium tuberculosis, UniProt P9WQ59); assay: Fluorescence polarization aasay to screen for inhibitors that compete for the binding of FadD28 to a bisubstrate Measured in Biochemical System Using Plate Reader - 2147-01_Inhibitor_Dose_CherryPick_Activity.; assay type: functional, Mycobacterium tuberculosis H37Rv
# T2 sequence (P9WQ59 whole entry): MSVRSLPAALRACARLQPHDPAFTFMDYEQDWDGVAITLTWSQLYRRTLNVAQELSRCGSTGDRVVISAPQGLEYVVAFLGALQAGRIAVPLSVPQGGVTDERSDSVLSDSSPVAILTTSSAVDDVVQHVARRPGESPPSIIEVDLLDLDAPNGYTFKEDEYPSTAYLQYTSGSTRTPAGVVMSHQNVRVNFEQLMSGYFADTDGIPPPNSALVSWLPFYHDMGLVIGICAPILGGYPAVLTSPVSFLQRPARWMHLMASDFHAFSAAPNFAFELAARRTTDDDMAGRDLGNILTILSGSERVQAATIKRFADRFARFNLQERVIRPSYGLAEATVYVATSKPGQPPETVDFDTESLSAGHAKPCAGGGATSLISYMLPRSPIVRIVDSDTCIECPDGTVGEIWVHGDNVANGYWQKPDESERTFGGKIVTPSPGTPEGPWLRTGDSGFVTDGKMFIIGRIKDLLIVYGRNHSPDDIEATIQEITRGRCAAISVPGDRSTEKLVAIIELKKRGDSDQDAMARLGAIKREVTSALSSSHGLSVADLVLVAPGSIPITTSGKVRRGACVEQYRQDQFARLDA
# [3] = Luminescence Cell-Based Dose Retest to Confirm Inhibitors of Cancer Stem Cells. [Related pubchem assays (depositor defined):AID2717, AID2721]; assay type: functional, Homo sapiens; conditions: Homo sapiens
# [4] = target: T3, Sentrin-specific protease 8 (Homo sapiens, UniProt Q96LD8); assay type: functional
# T3 sequence (Q96LD8 whole entry): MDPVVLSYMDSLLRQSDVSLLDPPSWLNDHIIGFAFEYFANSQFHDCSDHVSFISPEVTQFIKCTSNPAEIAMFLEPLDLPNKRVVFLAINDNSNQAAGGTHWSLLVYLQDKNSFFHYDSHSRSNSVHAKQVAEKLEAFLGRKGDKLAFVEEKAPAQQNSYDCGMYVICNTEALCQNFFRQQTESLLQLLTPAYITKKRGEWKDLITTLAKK
# [5] = target: T4, Corticotropin-releasing factor receptor 2/Corticotropin-releasing factor-binding protein (Homo sapiens, UniProt P24387+Q13324); assay: activators of CRF receptor 2 with binding protein – uHTS hits, confirmation (AID 602473); assay type: functional; conditions: read-out: EC50_Mean
# T4 sequence (Q13324 whole entry): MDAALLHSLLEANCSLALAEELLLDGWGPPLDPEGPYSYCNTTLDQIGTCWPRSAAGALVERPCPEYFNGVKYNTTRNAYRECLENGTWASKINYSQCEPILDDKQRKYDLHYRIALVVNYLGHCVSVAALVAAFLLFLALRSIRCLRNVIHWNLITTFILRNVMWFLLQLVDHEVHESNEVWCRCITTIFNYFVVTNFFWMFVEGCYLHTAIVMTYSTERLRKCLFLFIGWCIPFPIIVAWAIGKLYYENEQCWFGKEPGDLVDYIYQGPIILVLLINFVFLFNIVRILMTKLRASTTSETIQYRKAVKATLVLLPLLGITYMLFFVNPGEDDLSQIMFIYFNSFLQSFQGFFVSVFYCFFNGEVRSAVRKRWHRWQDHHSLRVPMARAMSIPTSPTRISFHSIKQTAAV
# T4 sequence (P24387 whole entry): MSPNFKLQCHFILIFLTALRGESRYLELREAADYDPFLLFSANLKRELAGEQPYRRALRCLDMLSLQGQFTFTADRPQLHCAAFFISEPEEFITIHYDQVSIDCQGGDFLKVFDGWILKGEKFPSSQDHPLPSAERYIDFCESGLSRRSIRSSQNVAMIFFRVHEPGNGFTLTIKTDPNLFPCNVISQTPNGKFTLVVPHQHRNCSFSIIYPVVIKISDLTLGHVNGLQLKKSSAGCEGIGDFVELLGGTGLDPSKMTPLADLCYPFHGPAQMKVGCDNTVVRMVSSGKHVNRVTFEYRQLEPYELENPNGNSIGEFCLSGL
# [6] = NIH-3T3 fibroblast cytotoxicity, dose response, cytotoxicity control, cell-based, fluorescence, Alamar Blue, secondary assay (AID 2327); assay type: functional;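 further: NIH-3T3 mouse fibroblasts cultured with fluconazole at 8 µg/mL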
# Cytochrome P450 1A2 = target: T5, Cytochrome P450 1A2 (Homo sapiens, UniProt P05177);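 further: PubChem cytochrome P450 panel assay, CYP1A2 panel member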
# T5 sequence (P05177 whole entry): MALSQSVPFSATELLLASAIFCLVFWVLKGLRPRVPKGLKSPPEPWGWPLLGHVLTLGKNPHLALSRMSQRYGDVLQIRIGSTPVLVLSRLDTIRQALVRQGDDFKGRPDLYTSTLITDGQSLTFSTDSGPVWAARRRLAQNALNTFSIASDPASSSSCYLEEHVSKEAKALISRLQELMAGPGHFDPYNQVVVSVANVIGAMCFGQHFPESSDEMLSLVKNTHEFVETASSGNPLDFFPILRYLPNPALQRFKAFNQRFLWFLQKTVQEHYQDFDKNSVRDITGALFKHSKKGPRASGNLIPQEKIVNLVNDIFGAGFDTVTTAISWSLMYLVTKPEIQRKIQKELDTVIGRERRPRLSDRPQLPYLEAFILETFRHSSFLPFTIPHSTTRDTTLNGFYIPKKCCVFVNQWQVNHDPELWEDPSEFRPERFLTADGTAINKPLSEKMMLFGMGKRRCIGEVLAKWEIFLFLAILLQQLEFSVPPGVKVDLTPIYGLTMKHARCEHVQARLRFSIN
# Cytochrome P450 2C9 = Cytochrome P450 2C9 (Homo sapiens, UniProt P11712)
# Sequence of Cytochrome P450 2C9 (P11712 whole entry): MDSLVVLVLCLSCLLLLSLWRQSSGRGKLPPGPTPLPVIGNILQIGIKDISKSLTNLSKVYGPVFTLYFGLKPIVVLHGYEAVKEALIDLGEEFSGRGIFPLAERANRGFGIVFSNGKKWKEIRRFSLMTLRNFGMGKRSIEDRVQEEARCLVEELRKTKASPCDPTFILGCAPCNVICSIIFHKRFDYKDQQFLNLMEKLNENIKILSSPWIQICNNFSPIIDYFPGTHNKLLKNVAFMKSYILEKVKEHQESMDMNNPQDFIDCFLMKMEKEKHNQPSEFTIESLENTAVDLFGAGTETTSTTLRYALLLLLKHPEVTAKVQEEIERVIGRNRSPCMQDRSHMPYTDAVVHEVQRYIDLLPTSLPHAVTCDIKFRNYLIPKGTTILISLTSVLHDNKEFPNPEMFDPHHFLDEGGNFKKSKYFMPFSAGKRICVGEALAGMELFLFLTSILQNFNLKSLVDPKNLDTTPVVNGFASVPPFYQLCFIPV
# Sequence of Kallikrein-7 (P49862 whole entry): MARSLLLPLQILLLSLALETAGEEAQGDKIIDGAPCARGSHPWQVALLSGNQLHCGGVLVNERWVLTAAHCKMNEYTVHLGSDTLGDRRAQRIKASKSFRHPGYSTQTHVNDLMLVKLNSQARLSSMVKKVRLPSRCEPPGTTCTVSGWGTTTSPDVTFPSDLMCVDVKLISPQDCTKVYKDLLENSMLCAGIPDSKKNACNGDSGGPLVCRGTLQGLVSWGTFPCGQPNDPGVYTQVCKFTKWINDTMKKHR
SMILES,IC50 [1],AC50 [2],other results
CC(C)OCCOc1ccc2oc(-c3ccco3)cc(=O)c2c1,21.7 µM (active),–,EC50 (Kallikrein-7): > 7.72 µM (active)
O=C(NC1CC1)C1CCN(S(=O)(=O)c2cc([N+](=O)[O-])ccc2Cl)CC1,2.49 µM (active),–,–
O=C1N=C(Nc2cccnc2)S/C1=C/c1ccc(F)cc1,18.4 µM (active),–,–
O=C(NNS(=O)(=O)c1ccc(F)cc1)c1cc(Cl)ccc1O,–,> 100 µM (inactive),–
Cc1nc2ccccc2n1/N=C/c1ccc([N+](=O)[O-])o1,–,–,AC50 [3]: 10.9 µM (active); IC50 [4]: 38.4 µM (active)
O=C(O)c1cc(Cl)ccc1-c1ccc(/C=C/c2cc(C(F)(F)F)nc(O)n2)o1,–,> 100 µM (inactive),EC50 [5]: 6.29 µM (active)
CC(C)=C1C(=O)NN(c2ccc(F)c(Cl)c2)C1=O,–,> 100 µM (inactive),EC50 [6]: > 160 µM (inactive); AC50 (Cytochrome P450 1A2): 31.6 µM (inconclusive); AC50 (Cytochrome P450 2C9): 20 µM (inconclusive)
CC(C)(C)NS(=O)(=O)c1ccc(NC(=O)CS(=O)(=O)Cc2ccccc2)cc1,–,> 100 µM (inactive),–
Cc1cc(C=O)c(C)n1-c1cccc(C(=O)O)c1,6.32 µM (active),–,–
C=C(C)C(=O)N1CC2(CC(c3cccc(NC(=O)/C=C\C=C/C)c3)=NO2)C[C@H]1C(N)=O (some centres undefined),9.08 µM (active),–,–
COCCn1c(=S)[nH]c2sc3c(c2c1=O)CCC(C)C3 (centres undefined),–,53.8 µM (active),–
NS(=O)(=O)c1ccc(NC(=O)C2Cc3ccccc3CN2C(=O)c2ccco2)cc1 (centres undefined),6.06 µM (active),–,–
CCOC(=O)CC1(C)OCC(C[N+]2(C)CCCCC2)O1 (centres undefined),5.57 µM (active),–,–
